For assay [1], the system named is CXCL10 secretion by CT26 cells. As to the kind of experiment: RIG-I dependent CXCL10 secretion by CT26 colon carcinoma cells (ELISA). Particulars: 24 h. The format is cell-based, murine. The method, then:
(§1) The CT26 murine colon carcinoma cell line (ATCC) was used to evaluate the induction of CXCL10 secretion. CXCL10 is an important chemokine in tumor immune biology that recruits tumor-specific T cells to the tumor. To confirm that compound-mediated CXCL10 production was RIG-I specific, RIG-I deficient CT2-RIG-1−/− cells were generated by Kineta using CRISPR technology.
(§2) CT26 cells were seeded at a density of 1×10^4 cells per well on a 96-well tissue culture plate in 100 μL of cell culture and cells were incubated at 37° C. and 5% CO2 for 24 hr. Next, CT26 cells were treated with compounds at the indicated concentrations. CXCL10 was quantified by ELISA from supernatants taken 24 h after compound stimulation by use of the CXCL10 DuoSet ELISA kit (Cat # DY466, R&D, Minneapolis, Minn., USA) according to the manufacturer's instructions.
(§3) CXCL10 secretion by CT26 cells in response to compounds (in an amount of 5 to 20 μM) of the present disclosure is shown in Table 8. The compound-induced CXCL10 production was RIG-I dependent, since none of the compounds mediated CXCL10 secretion in RIG-I deficient CT26 RIG-1−/− cells. The compounds (10 μM, *20 μM, **5 μM) are indicated in the table as follows: “−” indicates less than 100 pg/mL; “+” indicates 100-199 pg/mL; “++” indicates 200-399 pg/mL; “+++” indicates 400-799 pg/mL; “++++” indicates 800 to 1599 pg/mL; “+++++” indicates greater than or equal to 1600 pg/ml.
For orientation: In an ELISA, binding on a coated surface is turned into a signal by an enzyme label.

In assay [2] the test system is THP1-Lucia ISG IRF3 −/− cells. As to the kind of experiment: IRF3-deficient THP1-Lucia ISG IRF3 −/− reporter assay (counter-screen). Format: cell-based. Particulars: Homo sapiens, 18 h after stimulation, read-out: THP1 ISG IRF3 −/−: fold increase of luciferase activity over background; for fold induction at 10 µM: 10 μM compound. The procedure: (§4) The promotor was comprised of five IFN-stimulated response elements (ISRE) fused to an ISG54 minimal promotor which is unresponsive to NF-kB or AP-1 pathways. […] The IRF3-deficient THP1-Lucia™ ISG IRF3 −/− reporter cell line was generated by CRISPR technology from the parent THP1-Lucia™ ISG reporter cell line.
(§5) 5 THP1-Lucia™ ISG cells and IRF3-deficient THP1-Lucia™ ISG IRF3 −/− cells were differentiated with PMA (100 ng/ml) and stimulated with compounds at the indicated concentrations (5 to 20 μM), positive control, or not treated (background). Luciferase secretion was quantified using the QUANTI-Luc luciferase assay system (InvivoGen) 18 h after stimulation. Data are shown as fold increase luciferase activity over background in Table 7 and represent the IRF3-dependent ISG54 promotor activity by the THP1-Lucia™ ISG cells in response to compounds. […] The fold increase of compounds (10 μM, *20 μM, **5 μM) induced IRF3 dependent luciferase activity is indicated as follows: “−” indicates less than 2.4 fold increase; “+” indicates a 2.4-4.9 fold increase; “++” indicates a 5-9.9 fold increase; “+++” indicates a 10-19 fold increase; “++++” indicates a 20-39 fold increase; “+++++” indicates greater than or equal to 40 fold increase.
(Reporter assays use an easily measured gene product as a stand-in for the process of interest.)

Assay [3] relates to IRF3 signaling pathway (IRF-inducible ISG54 promotor) in THP1-Lucia ISG cells. Briefly: THP1-Lucia ISG reporter assay: induction of IRF3-dependent luciferase activity. The format is cell-based. Particulars: Homo sapiens, PMA-differentiated cells, 18 h after stimulation, read-out: THP1 ISG: fold increase of IRF3-dependent luciferase activity over background; for fold induction at 10 µM: 10 μM compound. The procedure: The compounds were evaluated in the THP1-Lucia™ ISG (interferon stimulated genes) reporter assay to determine if the compounds activate the IRF3 signaling pathway. The THP1-Lucia™ cells (InvivoGen) express the secreted luciferase (Lucia) reporter gene under the control of an IRF-inducible promotor. The reporter cell line was developed from human monocytic leukemia THP-1 cells.
as §4, §5

For assay [4], the system named is RIG-I deficient CT26 RIG-1−/− cells. Briefly: CXCL10 secretion in RIG-I deficient CT26 RIG-1−/− cells (ELISA). Format: cell-based, murine. Particulars: 24 h. The procedure:
as §1, §2, §3

Marks after values point to notes of the source that are not given here.

Regarding `O=C(Nc1nc2ccc(S(=O)(=O)N3CCCCC3)cc2s1)c1cc2ccccc2cc1OCCCCN1CCOCC1` [Example 38, 3-[4-(morpholin-4-yl)butoxy]-N-[6-(piperidine-1-sulfonyl)-1,3-benzothiazol-2-yl]naphthalene-2-carboxamide], the “CXCL10 secretion by CT26 cells” value in assay [1] (10 μM compound) is “+++ (“+++” indicates 400-799 pg/mL)”. The values for the fold induction at 10 µM in assay [2] and in assay [3] were less than 2.4 and 10 to 19, respectively. In addition, the “CXCL10 secretion by CT26 RIG-I −/− cells” value in assay [4] (10 μM compound) was “− (“−” indicates less than 100 pg/mL)”.
Consider `O=C(Nc1nc2ccc(S(=O)(=O)N3CCC3)cc2s1)c1cc2ccccc2cc1OCCN1CCOCC1` [Example 35, N-[6-(azetidine-1-sulfonyl)-1,3-benzothiazol-2-yl]-3-[2-(morpholin-4-yl)ethoxy]naphthalene-2-carboxamide], for which the “CXCL10 secretion by CT26 cells” value in assay [1] (10 μM compound) is “+ (“+” indicates 100-199 pg/mL)”. The fold induction at 10 µM was less than 2.4 in assay [2] and 20 to 39 in assay [3]. Further, in assay [4] (10 μM compound), the “CXCL10 secretion by CT26 RIG-I −/− cells” value was “− (“−” indicates less than 100 pg/mL)”.
`O=C(Nc1nc2ccc(S(=O)(=O)N3CCC3)cc2s1)c1ccc2ccccc2c1` [Example 46, N-[6-(azetidine-1-sulfonyl)-1,3-benzothiazol-2-yl]naphthalene-2-carboxamide]: in assay [1] (10 μM compound), the “CXCL10 secretion by CT26 cells” value is “++ (“++” indicates 200-399 pg/mL)”. The fold induction at 20 µM in assay [2] (20 μM compound (*)) is less than 2.4; in assay [3] (20 μM compound (*)), 10 to 19. The “CXCL10 secretion by CT26 RIG-I −/− cells” value in assay [4] (10 μM compound) is “− (“−” indicates less than 100 pg/mL)”.
Consider `O=C(Nc1nc2ccc([N+](=O)[O-])cc2s1)c1cc2ccccc2cc1OCCN1CCOCC1` [Example 20, 3-[2-(morpholin-4-yl)ethoxy]-N-(6-nitro-1,3-benzothiazol-2-yl)naphthalene-2-carboxamide], for which the “CXCL10 secretion by CT26 cells” value in assay [1] (5 μM compound (**)) was “+** (“+” indicates 100-199 pg/mL)”. The fold induction at 10 µM in assay [2] was less than 2.4; in assay [3], 10 to 19. Further, the “CXCL10 secretion by CT26 RIG-I −/− cells” value in assay [4] (5 μM compound (**)) is on record as “−** (“−” indicates less than 100 pg/mL)”.
Consider `O=C(Nc1nc2ccc(S(=O)(=O)N3CCCC3)cc2s1)c1ccc(-c2ccccc2)cc1OCCCCN1CCOCC1` [Example 41, 3-[4-(morpholin-4-yl)butoxy]-N-[6-(pyrrolidine-1-sulfonyl)-1,3-benzothiazol-2-yl]-[1,1′-biphenyl]-4-carboxamide], for which the “CXCL10 secretion by CT26 cells” value in assay [1] (10 μM compound) is given as “+++++ (“+++++” indicates greater than or equal to 1600 pg/ml)”. The fold induction at 10 µM in assay [2] was less than 2.4; in assay [3] it was 20 to 39. In addition, the “CXCL10 secretion by CT26 RIG-I −/− cells” value in assay [4] (10 μM compound) is given as “− (“−” indicates less than 100 pg/mL)”.
On to `O=C(Nc1nc2ccc(S(=O)(=O)N3CCC3)cc2s1)c1cc2ccsc2cc1OCCCCN1CCOCC1` [Example 63, N-[6-(azetidine-1-sulfonyl)-1,3-benzothiazol-2-yl]-6-[4-(morpholin-4-yl)butoxy]-1-benzothiophene-5-carboxamide], for which, in assay [1] (10 μM compound), the “CXCL10 secretion by CT26 cells” value is given as “+ (“+” indicates 100-199 pg/mL)”. The figures for the fold induction at 10 µM in assay [2] and in assay [3] were less than 2.4 and 2.4 to 4.9, respectively. In addition, the “CXCL10 secretion by CT26 RIG-I −/− cells” value in assay [4] (10 μM compound) is “− (“−” indicates less than 100 pg/mL)”.
For the molecule `O=C(Nc1nc2ccc(S(=O)(=O)N3CCCC3)cc2s1)c1cc2ccccc2cc1OCCCCN1CCOCC1` [Example 31, 3-[4-(morpholin-4-yl)butoxy]-N-[6-(pyrrolidine-1-sulfonyl)-1,3-benzothiazol-2-yl]naphthalene-2-carboxamide], the “CXCL10 secretion by CT26 cells” value in assay [1] (10 μM compound) was “+++++ (“+++++” indicates greater than or equal to 1600 pg/ml)”. Further, the fold induction at 10 µM in assay [2] is less than 2.4; in assay [3], 10 to 19. Also, the “CXCL10 secretion by CT26 RIG-I −/− cells” value in assay [4] (10 μM compound) is “− (“−” indicates less than 100 pg/mL)”.
Turning to `O=C(Nc1nc2ccc(S(=O)(=O)N3CCCC3)cc2s1)c1cc2ccccc2cc1OCCN1CCOCC1` [Example 29, 3-[2-(morpholin-4-yl)ethoxy]-N-[6-(pyrrolidine-1-sulfonyl)-1,3-benzothiazol-2-yl]naphthalene-2-carboxamide], the “CXCL10 secretion by CT26 cells” value in assay [1] (10 μM compound) is “++++ (“++++” indicates 800 to 1599 pg/mL)”. The fold induction at 10 µM in assay [2] is less than 2.4; in assay [3], not below 40. In addition, the “CXCL10 secretion by CT26 RIG-I −/− cells” value in assay [4] (10 μM compound) was “− (“−” indicates less than 100 pg/mL)”.
In the case of `O=C(Nc1nc2ccc(S(=O)(=O)N3CC[C@@H](O)C3)cc2s1)c1cc2ccccc2cc1OCCN1CCOCC1` [Example 77, N-(6-{[(3R)-3-hydroxypyrrolidin-1-yl]sulfonyl}-1,3-benzothiazol-2-yl)-3-[2-(morpholin-4-yl)ethoxy]naphthalene-2-carboxamide], the “CXCL10 secretion by CT26 cells” value in assay [1] (10 μM compound) is “+ (“+” indicates 100-199 pg/mL)”. For the same molecule, the results for the fold induction at 10 µM in assay [2] and in assay [3] were less than 2.4 and 2.4 to 4.9, respectively. In addition, the “CXCL10 secretion by CT26 RIG-I −/− cells” value in assay [4] (10 μM compound) is “− (“−” indicates less than 100 pg/mL)”.
As to `O=C(Nc1nc2ccc(SC(F)F)cc2s1)c1ccc2ccccc2c1` [Example 4, N-{6-[(difluoromethyl)sulfanyl]-1,3-benzothiazol-2-yl}naphthalene-2-carboxamide], in assay [1] (10 μM compound), the “CXCL10 secretion by CT26 cells” value was “++++ (“++++” indicates 800 to 1599 pg/mL)”. Moreover, the fold induction at 10 µM in assay [2] is less than 2.4; in assay [3], not below 40. Also, in assay [4] (10 μM compound), the “CXCL10 secretion by CT26 RIG-I −/− cells” value is reported as “− (“−” indicates less than 100 pg/mL)”.
As to `O=C(Nc1nc2ccc(S(=O)(=O)N3CCCC3)cc2s1)c1cc2ccsc2cc1OCCN1CCOCC1` [Example 39, 6-[2-(morpholin-4-yl)ethoxy]-N-[6-(pyrrolidine-1-sulfonyl)-1,3-benzothiazol-2-yl]-1-benzothiophene-5-carboxamide], in assay [1] (10 μM compound), the “CXCL10 secretion by CT26 cells” value is reported as “++ (“++” indicates 200-399 pg/mL)”. In addition, the fold induction at 10 µM in assay [2] is less than 2.4; in assay [3], 20 to 39. For the same molecule, the “CXCL10 secretion by CT26 RIG-I −/− cells” value in assay [4] (10 μM compound) is “− (“−” indicates less than 100 pg/mL)”.
Turning to `O=C(Nc1nc2ccc(S(=O)(=O)N3CCC(O)C3)cc2s1)c1cc2ccccc2cc1OCCN1CCOCC1` (stereo not shown) [Example 56, N-{6-[(3-hydroxypyrrolidin-1-yl)sulfonyl]-1,3-benzothiazol-2-yl}-3-[2-(morpholin-4-yl)ethoxy]naphthalene-2-carboxamide], the “CXCL10 secretion by CT26 cells” value in assay [1] (10 μM compound) is “+++ (“+++” indicates 400-799 pg/mL)”. For the same molecule, the fold induction at 10 µM is less than 2.4 in assay [2] and 10 to 19 in assay [3]. Besides, the “CXCL10 secretion by CT26 RIG-I −/− cells” value in assay [4] (10 μM compound) is “− (“−” indicates less than 100 pg/mL)”.
For `O=C(Nc1nc2ccc(S(=O)(=O)N3CCC3)cc2s1)c1ccc(-c2ccccc2)cc1` [Example 50, N-[6-(azetidine-1-sulfonyl)-1,3-benzothiazol-2-yl]-[1,1′-biphenyl]-4-carboxamide], in that order: “+++++ (“+++++” indicates greater than or equal to 1600 pg/ml)”, less than 2.4, 5 to 9.9 and “− (“−” indicates less than 100 pg/mL)”.

(Values after patent publication US20200071316A1, “ACTIVATORS OF THE RETINOIC ACID INDUCIBLE GENE "RIG-I" PATHWAY AND METHODS OF USE THEREOF” (Kineta Immuno-Oncology LLC, priority 2018, published 2020).)
